Legend:
Assay type in all cases: in vivo, Wistar rats
MES-induced convulsions = experiment: MES-induced seizure model; settings: rats, 10 mg/kg IP, vs saline-treated group
PTZ-induced convulsions = experiment: PTZ-induced seizure model; settings: rats
STR-induced convulsions = experiment: STR-induced seizure model; settings: rats, 10, 20, 30 minutes observation
[1] = 10 mg/kg IP, 30 minutes before PTZ 60 mg/kg IP, 10, 20, 30 minutes observation

| Structure (SMILES) | Protective effect on MES-induced convulsions (duration of THLE) (MES-induced convulsions) | Protective effect on PTZ-induced convulsions (convulsion score) (PTZ-induced convulsions; [1]) | Protective effect on PTZ-induced convulsions (convulsion score) (PTZ-induced convulsions; 10 and 15 mg/kg IP, 10, 20, 30 minutes) | Protective effect on STR-induced convulsions (convulsion score) (STR-induced convulsions; 10 mg/kg IP, 30 minutes before STR 3.5 mg/kg IP) | Protective effect on PTZ-induced convulsions (convulsion score) (PTZ-induced convulsions; 100 mg/kg IP, 10, 20, 30 minutes observation) | Protective effect on STR-induced convulsions (convulsion score) (STR-induced convulsions; 300 mg/kg IP) |
| --- | --- | --- | --- | --- | --- | --- |
| O=C1NC(=O)C(c2ccccc2)(c2ccc(OCCCN3CCCCC3)cc2)N1 (centres unmarked) [Compound 6, 5-Phenyl-5-(4-(3-(piperidin-1-yl)propoxy)phenyl) imidazolidine-2,4-dione] | failed to provide significant protection | full protection | significant and full protective effect |  |  |  |
| Clc1ccc(CCCOCCCN2CCCCC2)cc1 [PIT, pitolisant] | moderately protected | failed to provide protection |  | failed to provide protection |  |  |
| O=C1NC(=O)C(c2ccccc2)(c2ccccc2)N1 [PHT, Phenytoin] | fully |  |  |  |  |  |
| CCCC(CCC)C(=O)O [VPA, valproic acid] |  |  |  |  | significant protection | significant protection |
| C[C@@H](N)Cc1cnc[nH]1 [RAMH, R-(α)-methyl-histamine] | did not affect MES-induced seizures | did not affect convulsion score |  |  |  |  |

Reference: PMC5106240 (Drug Design, Development and Therapy, 2016)
